Patent US20110015068A1, “Herbicidal Compositions Comprising Pyroxasulfone V” (BASF SE, priority 2008, published 2011)
Like-named read-outs stand apart in the source and are kept apart here.

Legend:
Assay type in all cases: in vivo
[1] = system: Setaria italica; experiment: pre-emergence greenhouse test, SETIT; conditions: Setaria italica, 25 g ai/ha, read-out: observed % activity
Description: (§1) For the pre-emergence treatment, directly after sowing the active compounds, which had been suspended or emulsified in water, were applied by means of finely distributed nozzles. The containers were irrigated gently to promote germination and growth and subsequently covered with transparent plastic hoods until plant had rooted. This cover caused uniform germination of the tests plants, unless this was adversely affected by active compounds.
(§2) The respective herbicides A and/or safener were formulated as 10% by weight strength suspension concentrate and introduced to the spray liquor with the amount of solvent system used for applying the active compound. Herbicide B and/or safener were used as commercially available formulations and introduced to the spray liquor with the amount of solvent system used for applying the active compound. In the examples, the solvent used was water.
(§3) The test period extended over 21 days. During this time, the plants were tended, and their response to the treatments with active compound was evaluated.
(§4) The evaluation for the damage caused by the chemical compositions was carried out using a scale from 0 to 100%, compared to the untreated control plants. Here, 0 means no damage and 100 means complete destruction of the plants.

[2] = system: Alopecurus myosuroides; experiment: pre-emergence greenhouse test, ALOMY; conditions: Alopecurus myosuroides, 50 g ai/ha, read-out: observed % activity
Description: as §1, §2, §3, §4

[3] = system: Kochia scoparia; experiment: pre-emergence greenhouse test, KCHSC; conditions: Bassia scoparia, 25 g ai/ha, read-out: observed % activity
Description: as §1, §2, §3, §4

[4] = system: Echinochloa crus-galli; experiment: post-emergence greenhouse test, ECHCG; conditions: for inhibition at 13 g/ha: Echinochloa crus-galli, 13 g ai/ha, read-out: observed % activity
Description: (§5) For the post-emergence treatment, the test plants were first grown to a height of 3 to 20 cm, depending on the plant habit, and only then treated. Here, the herbicidal compositions were suspended or emulsified in water as distribution medium and sprayed using finely distributing nozzles.
as §2, §3, §4

[5] = system: Setaria italica; experiment: post-emergence greenhouse test, SETIT; conditions: Setaria italica, read-out: observed % activity; for inhibition at 50 g/ha: 50 g ai/ha; for inhibition at 100 g/ha: 100 g ai/ha
Description: as §5, §2, §3, §4

[6] = system: Galium aparine; experiment: post-emergence greenhouse test, GALAP; conditions: for inhibition at 25 g/ha / inhibition at 100 g/ha: Galium aparine, read-out: observed % activity; for inhibition at 25 g/ha: 25 g ai/ha; for inhibition at 100 g/ha: 100 g ai/ha
Description: as §5, §2, §3, §4

[7] = system: Digitaria sanguinalis; experiment: post-emergence greenhouse test, DIGSA; conditions: 20 DAT
Description: as §5, §2, §3, §4

[8] = system: Lolium multiflorum; experiment: post-emergence greenhouse test, LOLMU; conditions: 20 DAT
Description: as §5, §2, §3, §4

## Cn1nc(C(F)(F)F)c(CS(=O)(=O)C2=NOC(C)(C)C2)c1OC(F)F [pyroxasulfone, 3-[5-(difluoromethoxy)-1-methyl-3-(trifluoromethyl)pyrazol-4-ylmethylsulfonyl]-4,5-dihydro-5,5-dimethyl-1,2-oxazole]
[1]; 192 h, 8 DAT
  inhibition at 25 g/ha: 75%
[1]; 480 h, 20 DAT
  inhibition at 25 g/ha: 98%
[2]; 192 h, 8 DAT
  inhibition at 50 g/ha: 90%
[2]; 480 h, 20 DAT
  inhibition at 50 g/ha: 98%
[3]; 192 h, 8 DAT
  inhibition at 25 g/ha: 40%
[3]; 480 h, 20 DAT
  inhibition at 25 g/ha: 98%
[4]; 50 g ai/ha, 20 DAT, Table 3
  observed activity in % destruction: 80%
[4]; 192 h, 8 DAT
  inhibition at 13 g/ha: 25%
[4]; 480 h, 20 DAT
  inhibition at 13 g/ha: 80%
[5]; 192 h, 8 DAT
  inhibition at 50 g/ha: 25%
  inhibition at 100 g/ha: 45%
[5]; 480 h, 20 DAT
  inhibition at 50 g/ha: 75%
  inhibition at 100 g/ha: 80%
[6]; 12.5 g ai/ha, 20 DAT, Table 4
  observed activity in % destruction: 40%
[6]; 192 h, 8 DAT
  inhibition at 25 g/ha: 60%
  inhibition at 100 g/ha: 70%
[6]; 480 h, 20 DAT
  inhibition at 25 g/ha: 85%
  inhibition at 100 g/ha: 90%
[7]; 12.5 g ai/ha, Table 4
  observed activity in % destruction: 50%
[7]; 50 g ai/ha, Table 3
  observed activity in % destruction: 80%
[8]; 12.5 g ai/ha, Table 3
  observed activity in % destruction: 55%
[8]; 25 g ai/ha, Table 3
  observed activity in % destruction: 55%
[8]; 50 g ai/ha, Table 4
  observed activity in % destruction: 55%
